Here are results for 16 compounds from patent US20230192617A1, “AZABICYCLIC(THIO)AMIDES AS FUNGICIDAL COMPOUNDS” (Bayer CropScience Aktiengesellschaft, priority 2020, published 2023).

The structures appear in SMILES notation.

Series [1] can be described thus: Measurement of Log P values by HPLC on reversed phase columns (EEC directive 79/831 Annex V.A8). The class given is physicochemical. The note with it: method [a]: LC-UV, acidic range, 0.1% formic acid in water and acetonitrile as eluent. A digest of the protocol:
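Reversed-phase HPLC with UV detection per EEC 79/831 Annex V.A8, linear 10–95% acetonitrile gradient. Aqueous eluent: 0.1% formic acid (acidic), 0.001 M ammonium acetate (neutral), or 0.1% phosphoric acid (acidic); multiple values in one method joined by "+".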

In series [2] the test system is Colletotrichum lindemuthianum. As to the kind of experiment: B-8. Colletotrichum lindemuthianum in vitro cell test. The format is cell-based. The note with it: 144 h, 20 ppm of active ingredient, 6 days incubation, liquid culture, absorbance, read-out: efficacy (inhibition of fungal growth). A digest of the protocol: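 Spore suspension of C. lindemuthianum in liquid medium exposed to DMSO-solubilized compounds (final DMSO ≤1%) for 6 days. Mycelial growth read by absorbance, with inhibition calculated relative to compound-free control wells.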

The test system of series [3] is Alternaria brassicae. As to the kind of experiment: In vivo preventive test on Alternaria brassicae (leaf spot on radish or cabbage). The following applies: 500 ppm of active ingredient, preventive spray on radish or cabbage, evaluated 3 to 4 days after inoculation, read-out: efficacy. A digest of the protocol: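 Young radish or cabbage plants were sprayed with compound dissolved in DMSO/acetone/Tween 80 and diluted in water; controls received solvent only. Inoculation by spraying A. brassicae spore suspension 24 h later, then 3–4 days at 20 °C and 100% relative humidity.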

Series [4] relates to Colletotrichum lindemuthianum. As to the kind of experiment: In vivo preventive test on Colletotrichum lindemuthianum (leaf spot on bean). The note with it: 168 h, 500 ppm of active ingredient, preventive spray on bean, evaluated 7 days after inoculation, read-out: efficacy. As to the method:
B-5. In Vivo Preventive Test on Colletotrichum lindemuthianum (Leaf Spot on Bean) [table] The active ingredients were made soluble and homogenized in a mixture of Dimethyl sulfoxide/Acetone/Tween® 80 and then diluted in water to the desired concentration. The young plants of bean were treated by spraying the active ingredient prepared as described above. Control plants were treated only with an aqueous solution of Acetone/Dimethyl sulfoxide/Tween® 80. After 24 hours, the plants were contaminated by spraying the leaves with an aqueous suspension of Colletotrichum lindemuthianum spores. The contaminated bean plants were incubated for 24 hours at 20° C. and at 100% relative humidity and then for 6 days at 20° C. and at 90% relative humidity.

The subject of series [5] is Botrytis cinerea. Kind of series: In vivo preventive test on Botrytis cinerea (grey mould). The following applies: 500 ppm of active ingredient, preventive spray on gherkin or cabbage, evaluated 4 to 5 days after inoculation, read-out: efficacy. A digest of the protocol:
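Young gherkin or cabbage plants were sprayed with compound in DMSO/acetone/Tween 80 diluted in water, then inoculated 24 hours later with a B. cinerea spore suspension. Incubation lasted 4 to 5 days: gherkin at 17° C., 90% relative humidity; cabbage at 20° C., 100% relative humidity.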

Series [6] has as its system Sphaerotheca fuliginea. As to the kind of experiment: In vivo preventive test on Sphaerotheca fuliginea (powdery mildew on cucurbits). The note with it: Podosphaera fuliginea, 192 h; 500 ppm of active ingredient; preventive spray on gherkin; evaluated 8 days after inoculation; read-out: efficacy. A digest of the protocol:
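Young gherkin plants were sprayed with compound in DMSO/acetone/Tween 80 diluted in water. They were inoculated 24 h later with a spore suspension of Sphaerotheca fuliginea. Plants were then kept for 8 days at 20 °C and 70–80% relative humidity.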

Series [7] concerns Alternaria alternata. As to the kind of experiment: Alternaria alternata in vitro cell test. The class given is cell-based. The following applies: 120 h, 20 ppm of active ingredient, liquid culture, 5 days incubation, spectrometric measurement of mycelium growth, read-out: efficacy (inhibition of fungal growth). The method, boiled down:
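Liquid culture assay in which A. alternata spores in medium received DMSO-solubilized compound (final DMSO ≤1%). After 5 days, mycelium growth was measured spectrometrically. Inhibition was calculated against fungicide-free control wells.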

Series [8] has as its system Botrytis cinerea. As to the kind of experiment: B-11. Botrytis cinerea in vitro cell test. The format is cell-based. The following applies: 144 h, 20 ppm of active ingredient, 6 days incubation, liquid culture, absorbance, read-out: efficacy (inhibition of fungal growth). A digest of the protocol:
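B. cinerea spores were grown in liquid culture with compound (DMSO ≤1% final). Mycelium growth was measured spectrometrically after 6 days, with inhibition taken as absorbance relative to untreated control wells.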

Series [9] has as its system Pyrenophora teres. Kind of series: B-10. Pyrenophora teres in vitro cell test. The class given is cell-based. The note with it: 144 h, 20 ppm of active ingredient, 6 days incubation, liquid culture, absorbance, read-out: efficacy (inhibition of fungal growth). A digest of the protocol: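 Liquid-culture assay on a P. teres spore suspension with compounds added to the medium from DMSO solutions, final DMSO ≤1%. Mycelium growth read spectrometrically after 6 days. Inhibition calculated from absorbance against untreated control wells.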

The term chromatographic logP denotes a lipophilicity value derived from retention on a column. Read a low chromatographic logP as lower lipophilicity. One may read the inhibition as the relative decrease from the control value, in per cent. `O=C(NC[C@H](F)c1ccc(Br)cc1Cl)c1c(Oc2cccc(C(F)(F)F)c2)nnc2c1OCCO2` (racemic) [I-105] yielded a chromatographic logP in series [1] (reversed phase HPLC column) of 3.48. Also, the inhibition at 20 ppm in series [2] and in series [7] was 90 to 100% throughout. Also, the pest or weed control at 500 ppm in [3], in series [4], in series [5] and in [6] was 90 to 100% in each case.
The compound `O=C(NCC(F)c1ccc(Cl)cc1Cl)c1c(Oc2cccc(C(F)(F)F)c2)nnc2c1OCCO2` (racemic) [I-101, N-[2-(2,4-dichlorophenyl)-2-fluoro-ethyl]-3-[3-(trifluoro-methyl)phenoxy]-6,7-dihydro-[1,4]dioxino[2,3-c]pyridazine-4-carboxamide] returned a chromatographic logP in [1] (reversed phase HPLC column) of 3.37. For the same compound, the inhibition at 20 ppm lay within 80 to 89% in series [2] and 90 to 100% in [7]. The pest or weed control at 500 ppm in [3], in [4], in series [5] and in series [6] was 90 to 100% each time.
Regarding `Cc1ccc([C@@H](F)CNC(=O)c2c(Oc3cccc(Cl)c3)nnc3ccccc23)c(Cl)c1` (racemic) [I-052], the chromatographic logP in [1] (reversed phase HPLC column) is 4.19. Also, the inhibition at 20 ppm in [2], in series [8] and in [7] was 90 to 100% each time. The pest or weed control at 500 ppm in series [3], in series [4], in series [5] and in series [6] was 90 to 100% each time.
Take `Cc1ccc([C@@H](F)CNC(=O)c2c(Oc3cccc(C(F)(F)F)c3)cnc3ccccc23)c(Cl)c1` (racemic) [I-060]: the chromatographic logP in [1] (reversed phase HPLC column) came out at 4.4. Further, the inhibition at 20 ppm in series [2], in [8] and in [7] was 90 to 100% in each case. Moreover, the pest or weed control at 500 ppm in series [3], in series [4], in series [5] and in series [6] was 90 to 100% in each case.
As to `Cc1ccc2c(C(=O)NC[C@H](F)c3ccc(Br)cc3Cl)c(Oc3cccc(C(F)(F)F)c3)nnc2c1` (racemic) [I-046], the chromatographic logP in series [1] (reversed phase HPLC column) is 4.57. Also, the inhibition at 20 ppm in [2] and in series [7] was 90 to 100% in each case. Further, the pest or weed control at 500 ppm in series [3], in series [4], in series [5] and in [6] was 90 to 100% each time.
Turning to `Cc1ccc(C(F)(F)CNC(=O)c2c(Oc3cccc(C(F)(F)F)c3)nnc3c2OCCO3)c(C)c1` [I-106], the chromatographic logP in [1] (reversed phase HPLC column) came out at 3.37. In addition, the inhibition at 20 ppm in series [2] and in [7] was 90 to 100% in each case. In addition, the pest or weed control at 500 ppm in series [3], in series [4], in series [5] and in series [6] was 90 to 100% each time.
In series [1] (reversed phase HPLC column), `Cc1ccc(C(F)(F)CNC(=O)c2c(Oc3cccc(C(F)(F)F)c3)nnc3cc(F)ccc23)cc1C` [I-175] had a chromatographic logP of 4.62. Moreover, the inhibition at 20 ppm in series [2], in series [8], in [9] and in series [7] was 90 to 100% in each case. Besides, the pest or weed control at 500 ppm in series [3] lay within 90 to 100%; in series [4], 80 to 89%.
On to `O=C(NCC(F)(F)c1ccc(C2=CCCC2)cc1Cl)c1c(Oc2cccc(C(F)(F)F)c2)nnc2ccccc12` [I-073], for which, in series [1] (reversed phase HPLC column), the chromatographic logP is 5.4. Besides, the inhibition at 20 ppm in series [8] and in [9] was 90 to 100% throughout. Moreover, the pest or weed control at 500 ppm was 90 to 100% in series [3], 80 to 89% in series [4] and 90 to 100% in series [5].
On to `Cc1ccc([C@@H](F)CNC(=O)c2c(Oc3cccc(C(F)(F)F)c3)cnc3ccccc23)cc1C` (racemic) [I-056], for which the chromatographic logP in [1] (reversed phase HPLC column) is 4.33. For the same compound, the inhibition at 20 ppm in series [2], in series [8] and in series [7] was 90 to 100% throughout. The pest or weed control at 500 ppm in series [3], in [4], in series [5] and in series [6] was 90 to 100% each time.
With `C=Cc1cccc(Oc2cnc3ccccc3c2C(=O)NCC(F)(F)c2ccc(C)cc2C)c1` [I-221], in series [1] (reversed phase HPLC column), the chromatographic logP is 4.4. Besides, the inhibition at 20 ppm in series [2], in series [8], in series [9] and in [7] was 90 to 100% in each case. Besides, the pest or weed control at 500 ppm in [3] was in the range of 90 to 100%; in series [4], 70 to 79%; in series [5], 90 to 100%.
For `O=C(NCC(F)(F)c1ccc(Br)cc1Cl)c1c(Oc2cccc(C(F)(F)F)c2)nnc2c1OCCO2` [I-103], the chromatographic logP in series [1] (reversed phase HPLC column) turned out to be 3.6. The inhibition at 20 ppm in [2] and in series [7] was 90 to 100% throughout. The pest or weed control at 500 ppm was in the range of 80 to 89% in [3], 80 to 89% in series [4], 90 to 100% in series [5] and 90 to 100% in series [6].
As for `Cc1cc(Cl)ccc1[C@@H](F)CNC(=O)c1c(Oc2cccc(C(F)(F)F)c2)cnc2ccccc12` (racemic) [I-061], the chromatographic logP in [1] (reversed phase HPLC column) worked out at 4.47. Also, the inhibition at 20 ppm in series [2], in series [8] and in series [7] was 90 to 100% throughout. The pest or weed control at 500 ppm in [3] was 90 to 100%; in series [4] it was 70 to 79%; in series [5], 90 to 100%; in series [6], 90 to 100%.
For `Cc1ccc(C(F)(F)CNC(=O)c2c(Oc3cccc(C(F)(F)F)c3)nnc3c2CC(O)CC3)c(C)c1` (stereo not shown) [I-117], in series [1] (reversed phase HPLC column), the chromatographic logP is 3.18. The inhibition at 20 ppm in series [2], in series [8] and in series [7] was 90 to 100% throughout. The pest or weed control at 500 ppm was in the range of 70 to 79% in series [3], 90 to 100% in series [4], 90 to 100% in [5] and 90 to 100% in series [6].
In series [1] (reversed phase HPLC column), `Cc1ccc([C@H](C)NC(=O)c2c(Oc3cccc(C(F)(F)F)c3)nnc3c2OCCO3)cc1` (racemic) [I-102] displayed a chromatographic logP of 3.02. The inhibition at 20 ppm in series [2] and in [7] was 90 to 100% in each case. For the same compound, the pest or weed control at 500 ppm in [3], in [4], in series [5] and in series [6] was 90 to 100% in each case.
Compound `O=C(NCCc1ccc2c(c1)OCCO2)c1c(Oc2cccc(C(F)(F)F)c2)nnc2ccccc12` [I-086] displayed a chromatographic logP in series [1] of 3.42. For the same compound, the inhibition at 20 ppm in [2], in series [8], in [9] and in series [7] was 90 to 100% in each case. Also, the pest or weed control at 500 ppm in series [3], in series [4] and in series [5] was 90 to 100% in each case.
Compound `O=C(c1c(Oc2cccc(C(F)(F)F)c2)nnc2ccccc12)N(O)CCc1ccc(Cl)cc1` [I-167] had a chromatographic logP in [1] (reversed phase HPLC column) of 3.84. Further, the figures for the inhibition at 20 ppm in series [2], in series [8] and in series [9] were 80 to 89%, 90 to 100% and 90 to 100%, respectively. In addition, the pest or weed control at 500 ppm is 90 to 100% in series [3], 80 to 89% in series [4] and 70 to 79% in series [5].
